In US7491701B2, “Peptides that bind to HSP90 proteins” (Boys Town National Research Hospital, priority 2004, dated 2009):
Where no end group is shown, it is not given here.

Key:
beta-COP = experiment: Binding of beta-COP from mouse brain extract to Sulfolink-peptide affinity matrix, western analysis; conditions: FIG. 1B; for amount of beta-COP binding the peptide matrix: western with antibody to beta-COP; for amount of beta-COP bound by the di-serine control relative to the parent di-lysine peptide matrix: western, 672 BC1 vs OTOF CTERM E47, 670 CC1 vs OTOF CTERM E48
Method: Antibody to beta-COP was obtained from Oncogene Research Products (EMD Biosciences, Ind.) (Product No. PC175) and used at a 1:1500 dilution. Antibody to mouse Hsp90α was obtained from Stressgen (Victoria, Canada), Product No. SPS-771 and used at a 1:1000 dilution.
(§1) Sulfolink-peptide affinity columns were synthesized using the Sulpholink Kit (Pierce Biotechnology, Inc., Rockford, Ill., Product No. 44895) according to their protocol. Peptides were stored at 4° C. in a lyophilized state in a sealed desiccator. Approximately 2 mg of peptide is weighed and suspended in 0.4 ml of DMSO. This peptide solution is immediately diluted into 2 ml of coupling buffer and mixed (100 μl is removed for quantization) then added to 4 ml of a 50% slurry of Sulfolink gel equilibrated in coupling buffer in a small plastic column. The combination is mixed for 15 minutes at room temperature by rotation. The mixture is further incubated for 30 minutes at room temperature without mixing. The column is washed with coupling buffer, then blocked with freshly made 0.5 M cysteine, further washed with a Wash buffer. The peptide affinity matrix was removed from the column to a 50 ml conical tube and stored as a 50% slurry in PBS containing 0.05% sodium azide at 4° C.
Total mouse brain from deeply anthesized adult mice is excised and flash frozen in liquid nitrogen and stored at −80° C. The frozen brain is pulverized in a mortar and pestle under liquid nitrogen and suspended in TNGD (TRIS 50 mM pH7.5, NaCl 75 mM, EGTA 10 mM, EDTA 2 mM) with protease inhibitors (10 μl/ml of protease inhibitor cocktail for mammalian cells, Sigma Chemical Co. No. P8340) at 1 ml/100 mg of tissue. This mixture is homogenized in a Potter-Elvehjem Teflon glass homogenizer on ice. The homogenate is centrifuged for 10 minutes at 4° C. in an IEC minifuge at 13,200 RPM. The pellet is discarded. The supernatant is used immediately or frozen and stored at −80° C.
All steps of protein purification were done at 4° C. in a Handee Spin Cup Column (Pierce Biotechnology, Inc., Rockford, Ill., Product No. 69700) in the presence of protease inibitor (10 μl/ml of protease inhibitor cocktail for mammalian cells, Sigma Chemical Co. No. P8340). Fifty μl of a 50% slurry of Sulfolink-peptide was washed five times with 0.4 ml of TNGD. Mouse brain extract supernatant (100 μl) was allowed to absorb to the gel by mixing by rotation for 30 minutes. Following absorption the gel is washed five times with 0.4 ml TNGD. Specific elution is described in the results.
Protein samples are made 1× with ImmunoPure Lane Marker Non-Reducing Sample Buffer (5×) (Pierce Biotechnology) and heated for 5 minutes at 95° C. Samples are separated on a 4-20% Linear Gradient Ready Gel (BIO-RAD Laboratories, Hercules, Calif., Product No. 161-1105). Polyacrylamide gels are stained with BIORAD Silver Stain Plus Kit (No. 161-0449) or Bio-Safe Coomassie Stain or electro-blotted to PVDF membrane (BIO-RAD) for Western blot analysis, according to directions provided by the manufacturer. Specific antibody binding is detected using ECL Western Blotting System (Amersham Biosciences Corp., Piscataway, N.J., Product No. RPN2108). Molecular weight standards used were the BIO-RAD Precision Protein Standards, Prestained, Broad Range (Product No. 161-0372). Chemiluminecence is detected using Kodak Biomax ML Scientific Imaging Film (Product No. 868-9358).
Mouse brain extracts were absorbed to the four peptide matrix columns as described in the methods. Column matrix was transferred to PCR tubes and made 1× with SDS buffer and heated for 5 minutes at 95° C. After heating the samples were centrifuged for 1 minute at 300×g and the supernatant separated by SDS gel electrophoresis on two separate gels.

recombinant human Hsp90α = target: T1, recombinant human Hsp90α (Homo sapiens, UniProt P07900); experiment: Binding of purified recombinant human Hsp90α to peptide affinity columns, 600 mM NaCl elution, silver stain; conditions: for binding of Hsp90α to the peptide affinity column: 400 ng recombinant human Hsp90α, BSA-preabsorbed column, 4° C., silver stain, FIG. 5; for protein corresponding to Hsp90 molecular weight eluted with 600 mM NaCl, share of protein added: scan of silver stained gel, elution with TNGD + 600 mM NaCl
T1 construct: purchased Stressgen SPP-776
Method: Fifty μl of 50% slurry of OTOF CTERM E47 and OTOF CTERM E48 Sulfolink affinity matrix were equilibrated with four washes of 0.4 ml of TNGD buffer in Handee Spin Cup Columns (Pierce, Rockford). The columns was preabsorbed with 100 μl of 10% BSA for 30 minutes at 4° C. and mixed by rotation. The columns were then washed five times with 0.4 ml of TNGD. Four hundred (400) ng of recombinant human Hsp90α (Stressgen SPP-776, Lot No. B201401) in 100 μl of TNGD was added to each column for 30 minutes at 4° C. and mixed by rotation. The unabsorbed protein was removed by centrifugation. The columns were washed five times with 0.4 ml of TNGD, then eluted with 100 μl TNGD+600 mM NaCl. Samples were analyzed on a 4-20% SDS-PAGE gel followed by silver staining using a BIORAD Silver Stain Plus kit (No. 161-0449) as show in FIG. 5. […] The amount of protein added and eluted was determined by scanning the silver stained gel using a Alpha Imager 2200 gel imaging system.

[1] = background; cited from earlier work
[2] = background; geldanamycin Phase I clinical trials; cited from earlier work
Hsp90α (p97, HS9A_MOUSE) = target: T2, Hsp90α (p97, HS9A_MOUSE) (Mus musculus, UniProt P07901); experiment: Binding of mouse brain extract protein p97 (identified as Hsp90α) to Sulfolink-peptide affinity matrix, SDS-PAGE Coomassie stain; conditions: Coomassie stained gel, FIG. 1A
T2 construct: Total mouse brain from deeply anthesized adult mice is excised and flash frozen in liquid nitrogen; from tissue; host or cells: adult mouse brain, 13,200 rpm supernatant of homogenate
Method: as §1, with “The peptide affinity matrix was removed from the column to a 50 ml conical tube and stored as a 50% slurry in PBS containing 0.05% sodium azide at 4° C.” left out
Protein samples are made 1× with ImmunoPure Lane Marker Non-Reducing Sample Buffer (5×) (Pierce Biotechnology) and heated for 5 minutes at 95° C. Samples are separated on a 4-20% Linear Gradient Ready Gel (BIO-RAD Laboratories, Hercules, Calif., Product No. 161-1105). […] Specific antibody binding is detected using ECL Western Blotting System (Amersham Biosciences Corp., Piscataway, N.J., Product No. RPN2108). […] Chemiluminecence is detected using Kodak Biomax ML Scientific Imaging Film (Product No. 868-9358). […]

Row | Compound | amount of beta-COP binding the peptide matrix (beta-COP) | binding of Hsp90α to the peptide affinity column (recombinant human Hsp90α) | protein corresponding to Hsp90 molecular weight eluted with 600 mM NaCl, share of protein added (recombinant human Hsp90α) | amount of beta-COP bound by the di-serine control relative to the parent di-lysine peptide matrix (beta-COP) | water / aqueous solubility [1] | hepatotoxicity [2] | further results
1 | CYSLPGYLAKKILGA (also: coupled to Sulfolink matrix) [OTOF CTERM E47, C-terminus 14 amino acids of the brain otoferlin isoform with added N-terminal cysteine, coupled to Sulfolink matrix] | similar | does not bind | no eluted protein was detected | – | – | – | amount of beta-COP binding the peptide matrix (beta-COP; listed as E47): specific binding
2 | CYSLPGYLASSILGA (peptide corresponding to the C-terminus of an otoferlin isoform with di-lysine replaced by di-serine) [672 BC1, E47 peptide control with the di-lysine replaced with di-serine, reference compound] | – | – | – | about half | – | – | –
3 | COC1=C2C[C@@H](C)C[C@H](OC)[C@H](O)[C@@H](C)/C=C(\C)[C@H](OC(N)=O)[C@@H](OC)/C=C\C=C(/C)C(=O)NC(=CC1=O)C2=O [geldanamycin] | – | – | – | – | poor water solubility | hepatotoxicity | –
4 | C=CCNC1=C2C[C@@H](C)C[C@H](OC)[C@H](O)[C@@H](C)/C=C(\C)[C@H](OC(N)=O)[C@@H](OC)/C=C\C=C(/C)C(=O)NC(=CC1=O)C2=O [Peptide 17-AAG, 17-(allylamino)-17-desmethoxygeldanamycin] | – | – | – | – | limited aqueous solubility | reduced hepatotoxicity | –
5 | CYSLPGYMVSSLLGA (peptide corresponding to the C-terminus of an otoferlin isoform with di-lysine replaced by di-serine) [670 CC1, E48 peptide control with the di-lysine replaced with di-serine, reference compound] | – | – | – | about a tenth | – | – | –
6 | CYSLPGYMVKKLLGA (also: coupled to Sulfolink matrix) [OTOF CTERM E48, C-terminus 14 amino acids of the cochlear otoferlin isoform with added N-terminal cysteine, coupled to Sulfolink matrix] | similar | specifically binds | Approximately 10% | – | – | – | amount of beta-COP binding the peptide matrix (beta-COP; listed as E48): specific binding; binding of a protein at approximately 97 kilo-daltons (p97, Hsp90α) to the peptide matrix (Hsp90α (p97, HS9A_MOUSE)): higher levels; binding of a protein at approximately 97 kilo-daltons (p97, Hsp90α) to the peptide matrix (Hsp90α (p97, HS9A_MOUSE); listed as E48): specific binding
